Patent US20230331781A1, “PAR4 DERIVED PEPTIDES, ANALOGS AND USES THEREOF” (Yissum Research Development Company of the Hebrew …, priority 2019, published 2023)
Numbered stars: 1 amine (or outer) side, 2 acyl side, 3 side chain; on linkers, the order of the positions; unused ones are H or OH. Bridge positions count the residues as written; N and C are the ends. Square brackets hold non-standard residues; d marks the D form. Ends that are not written are not given here. GlyBU(C4) = Gly building unit (N-alpha-functionalized Gly) carrying a C4 alkyl chain (n = m = 4), bridged through a urea group; CO = O=C([*:1])[*:2]

Test system: RKO/hPar4 cells
Assay: Xenograft tumor model, RKO/hPar4 clone inoculated subcutaneously in nude mice
Assay type: in vivo
Conditions: for tumor growth / tumor size: RKO/hPar4 in nude mice, s.c. at tumor site, 100 μM, 0.25 mg/30 gm, 3 times/week, from day of inoculation or 4 days later, 32 days
Procedure: FIG. 9A. A clone of RKO/PAR4 overexpressing cells (1×10^6) were injected subcutaneously into nude mice. PAR4 c(4-4) (100 μM; 0.25 mg/30 gm) was subcutaneously injected, at the site of the tumor either at the same day of RKO/PAR4 clone inoculation or 4 days later. The inhibitor was applied repeatedly 3 times/week for 3 weeks. Mice were weighted every 3 days and tumor size was measured. Mice were sacrificed after 32 days. […] Tumors were weighed and measured for size at the indicated time points and tumor volume was calculated05. FIG. 9C. qPCR of a representative RKO stable clone of PAR4. Error bars show s.d.; *** P<0.001. FIG. 9D. IHC of RKO/PAR4 derived tumors. Immunohistochemistry of RKO compared to small tumors in the presence of PAR4 c(4-4) inhibitor. Levels of proliferation in the large and small tumors were indicated by applying anti ki67 abs (FIG. 9Da and 9Db). For apoptosis, application of active caspase-3 Abs were applied (FIG. 9Dc and 9Dd). […] FIG. 9E. Histograms representing positive IHC in each treatment group. […] Hematoxilyn & eosin staining of large (left panel) and small (right panel) tumors distinctly indicate to the appearance of a wide basement membrane in the small tumors whereas a thinner and cell-invaded basement membrane is observed in large tumors.
We have generated stable clones overexpressing PAR4 in RKO cells, a non-aggressive colon cancer cell line (expressing wt p53), by infecting the cells with HA-hPar4 virus. This was followed by selection using Geneticin G418 resistance (500 μg/ml) to produce RKO/hPar4 clones. Clone efficiency generation was evaluated using qPCR analyses.
Male athymic nude mice aged 6-7 weeks were pre-implanted subcutaneously with the relevant cells (1×10^6 cells): either with HCT-116 or with RKO/hPar4 cells.
The inhibitor was injected at the site of the tumor at the day of inoculation. In an additional group, mice implanted with HCT-116 were administered with the inhibitor at day 4 after inoculation. The inhibitor ([…]) was applied repeatedly 3 times/week to all mice after the first administration of the inhibitor.
Mice were monitored for tumor size by external caliber measurements (length and width) on days 7, 14, 22 and for up to 32 days, if tumor burden allowed. Tumor volume (V) was calculated by V=L×W^2×0.5, where L is length and W is width. At the end of the experiment, mice were euthanized and tumors were removed, weighed and fixed in formalin for histology. All mice survived to the end of the experiment. All animal experiments were approved by the animal committee of the Hebrew University (MD-19-15924). In fact, for the xenograft tumor formation we have utilized two types of cell lines; the HCT116 cells, an aggressive colon cancer cell line, overexpressing oncogenes among of which is also PAR4, (FIGS. 10A and 10B) and clone/s overexpressing Par4, generated in RKO cell line; RKO/hPar4 cells (FIG. 9A-9C). HCT116 (1×10^6) and RKO/hPar4 (1×10^6) clone/s were inoculated subcutaneously in nude mice. The Pc(4-4) cyclic peptide was injected at the site of the tumor (100 μM; 0.25 mg/30 gram mouse), either at the time of tumor cell injection or 4 days after tumor-cell implantation. The Pc(4-4) cyclic peptide was applied repeatedly 3 times/week. The HCT116 cell inoculation generated large tumors and were terminated after 20 days, whereas the RKO/Par4 inoculation developed tumors on a slower pace and were terminated after 32 days. […] The powerful inhibition of tumor growth was seen regardless of whether the Pc(4-4) cyclic peptide was applied at the same time of tumor inoculation or applied 4 days later. This was obtained irrespective of using an aggressive colon cancer cell line or stable RKO/hPar4 clone/s, overexpressing PAR4 (FIGS. 9A and 9B).

[1] = RKO/PAR4 derived small tumors generated in the presence of the inhibitor vs large tumors

Pc(4-4): backbone cyclic analog of Formula I, m=n=4, ring size 30 atoms (S[GlyBU(C4)]EFRDK[GlyBU(C4)]; bridge 2-8 via CO; not fully specified; printed as SZ1EFRDKX3)
apoptosis in tumors (active caspase-3 IHC) [1]: induced levels of active caspase-3
proliferation in tumors (ki67 IHC) [1]: little
apoptosis in tumors (active caspase-3 IHC) (RKO/PAR4 derived small tumors generated in the presence of the inhibitor vs large tumors, listed as PAR4 c(4-4)): high levels of active caspase-3
difference between treatment started at the day of inoculation or 4 days after inoculation (RKO/Par4 stable clones in nude mice): no statistical difference
tumor growth / tumor size: significantly smaller tumors
tumor growth / tumor size (listed as PAR4 c(4-4)): potently inhibits
tumor growth / tumor size (listed as PAR(4-4)): markedly small tumors
